The source of these data is US8114886B2, “Pyridylmethylsulfone derivative” (Daiichi Sankyo Company, Limited, priority 2005, dated 2012).

Entries after “also recorded” stand apart in the source; their conditions may differ. Like-named read-outs stand apart in the source and are kept apart here.

Broadly, the EC50 is the concentration that produces a half-maximal response. Usually melting point stands for the temperature, or range, at which the solid turns liquid.

The test system of series [1] is β-amyloid protein (Aβ) secreted by E35 cells (H4 cells with APP751 gene). Nature of the series: Screening system using E35 cells for inhibition of production/secretion of β-amyloid protein (sandwich ELISA of Aβ in culture medium). Format: cell-based, human. Particulars: 24 hours with compound, Aβ in culture supernatant by ELISA, read-out: Inhibitory Activity for Production of A(EC50). On the procedure: The activity of the compound inhibiting β-amyloid protein production was measured on E35 cells prepared by introducing APP751 gene, a gene of a human wild type β-amyloid protein precursor protein, to human glioma cells (H4 cells), by quantifying the amount of β-amyloid protein (Aβ) secreted to the culture medium by means of a sandwich type Enzyme-Linked Immunosorbent Assay (ELISA) method.
That is, E35 cells inoculated on a 96-well plate were cultured in an incubator at 37° C. which was maintained at equilibrium with 5% carbon dioxide, using Dulbecco's Modified Eagle's Medium containing inactivated 10% fetal bovine serum as the culture medium. After 24 hours from the inoculation, a test compound dissolved in a DMSO solution was added. The DMSO solution of the test compound was prepared at a concentration of 2000 times of the final concentration, such that the DMSO concentration in the culture medium would be 0.05%. After culturing for another 24 hours, the culture supernatant was recovered, and this was added to a 96-well plate for ELISA onto which a monoclonal antibody against Aβ, 25-1, was solid-phased. The plate was incubated at 4° C. for 16 to 20 hours. The plate was washed with phosphate buffer solution (pH 7.4), and then a biotinylated monoclonal antibody against Aβ, MA32-40, was added thereto. The plate was left to stand at 4° C. for 2 hours. The plate was washed again with phosphate buffer solution, and then alkaline phosphatase-conjugated streptavidin was added to conjugate streptavidin to biotin. Subsequently, the plate was washed with phosphate buffer solution. To this, Blue Phos (Kirkegaard & Perry Laboratories, Inc.) was added. After incubating the plate for an appropriate time, the reaction was terminated with an acid, and the absorbance for each well was measured. The amount of Aβ contained in the culture supernatant was determined from a calibration curve which was produced separately, and the amount was compared with that of control cells to which the compound was not added. Thus, the concentration at which 50% of the Aβ production is inhibited (EC50 value) was calculated. In addition, the 25-1 antibody and MA32-40 antibody used in ELISA were mouse monoclonal antibodies derived from the hybridoma cell clone lines, which were each produced and selected according to a standard method using Aβ25-35 and Aβ1-8 as antigens, respectively, and which specifically recognize their respective antigens. […]
The scores indicate ++++ for the case where EC50 was 5 nM or less; +++ for the case where EC50 was 5 to 50 nM; ++ for the case where EC50 was 50 to 500 nM; and + for the case where EC50 was 500 nM to 5 μM.

Series [2] deals with intracerebral amount of Aβ. Nature of the series: Assessment of β-amyloid protein production inhibitory action and immunosuppressing action in vivo. Particulars: male SD rats, oral, single dose, cerebrum Aβ after 3 hours, repeated administration for 7 days for immunosuppression. An excerpt: As an example of the compound (1), the compounds described in Example 22, Example 85, Example 101, Example 106 or Example 118 (respectively, compound represented by the above formula (1-1), (1-2), (1-3), (1-4) or (1-5), which will be hereinafter referred respectively to compound (1-1), (1-2), (1-3), (1-4) or (1-5)), or the control compound LY, was suspended in a 0.5% aqueous solution of methylcellulose, and the suspension was orally administered in a single dose to male SD rats (about 5 weeks old). For the solvent control group, a 0.5% aqueous solution of methylcellulose was administered alone. After 3 hours of administration, the brain was excised, and the cerebrum was collected. The cerebrum was homogenized with a 42% aqueous solution of formic acid, and was centrifuged at 100,000×g for 60 minutes. The resulting supernatant was neutralized with 1 M Tris, and the Aβ concentration in these samples were measured using the sandwich type ELISA method as described in Test Example 1. Furthermore, the compound (1-1) to (1-5) or control compound LY was orally administered to male SD rats repeatedly for 7 days, and the rats were subjected to histopathological and serological examinations, so as to assess the immunosuppressing effect of the compound.

For the compound `Cc1cc(C(=O)N(C)C)ncc1C(c1cc(F)ccc1F)[S+]([O-])c1ccc(F)cc1` (stereo not shown) [Example 22, 5-[(2,5-Difluorophenyl)[(4-fluorophenyl)sulfinyl]methyl]-N,N,4-trimethylpyridine-2-carboxamide], in series [1] (Homo sapiens), the EC50 lay within 500 to 5000 nM. Besides, the “difference between the dose exhibiting a statistically significant decrease in the intracerebral amount of Aβ and the dose exhibiting an immunosuppressing effect” value in series [2] (listed as (1-1)) is listed as “sufficient differences were recognized; also recorded: sufficient difference”.
As to `Cc1cc(C(=O)NCO)ncc1C(c1cc(F)ccc1F)S(=O)(=O)c1ccc(F)cc1` (stereo not shown) [Example 85, 5-[(2,5-difluorophenyl)[(4-fluorophenyl)sulfonyl]methyl]-N-(1-hydroxymethyl)-4-methylpyridine-2-carboxamide], the melting point was 164 to 166 °C. Also, the EC50 in series [1] (Homo sapiens) was at most 5 nM. In series [2] (listed as (1-2)), the “difference between the dose exhibiting a statistically significant decrease in the intracerebral amount of Aβ and the dose exhibiting an immunosuppressing effect” value is “sufficient differences were recognized”.
Take `Cc1cc(C(=O)NCO)ncc1C(c1c(F)ccc(F)c1F)S(=O)(=O)c1ccc(F)cc1` (stereo not shown) [Example 101, 5-[[(4-Fluorophenyl)sulfonyl](2,3,6-trifluorophenyl)methyl]-N-(1-hydroxymethyl)-4-methylpyridine-2-carboxamide]: the concentration for a half-maximal effect (EC50) in series [1] (Homo sapiens) was at most 5 nM. In series [2] (listed as (1-3)), the “difference between the dose exhibiting a statistically significant decrease in the intracerebral amount of Aβ and the dose exhibiting an immunosuppressing effect” value is “sufficient differences were recognized”.
For `Cc1cc(C(=O)NCO)ncc1C(c1c(F)ccc(F)c1F)S(=O)(=O)c1ccccc1` (stereo not shown) [Example 106, N-(1-hydroxymethyl)-4-methyl-5-[(phenylsulfonyl)(2,3,6-trifluorophenyl)methyl]pyridine-2-carboxamide], the EC50 in series [1] (Homo sapiens) is at most 5 nM. Moreover, the “difference between the dose exhibiting a statistically significant decrease in the intracerebral amount of Aβ and the dose exhibiting an immunosuppressing effect” value in series [2] (listed as (1-4)) is given as “sufficient differences were recognized”.
Regarding `Cc1cc(C(N)=O)ncc1C(c1c(F)ccc(F)c1F)S(=O)(=O)c1ccc(C(F)(F)F)nc1` (stereo not shown) [Example 117, 4-Methyl-5-[[[6-(trifluoromethyl)pyridin-3-yl]sulfonyl](2,3,6-trifluorophenyl)methyl]pyridine-2-carboxamide], the melting point was 237 to 238 °C. In addition, the 50% effective concentration (EC50) in series [1] (Homo sapiens) was at most 5 nM.
Regarding `Cc1cc(C(=O)NCO)ncc1C(c1c(F)ccc(F)c1F)S(=O)(=O)c1ccc(C(F)(F)F)nc1` (stereo not shown) [Example 118, N-(1-hydroxymethyl)-4-methyl-5-[[[6-(trifluoromethyl)pyridin-3-yl]sulfonyl](2,3,6-trifluorophenyl)methyl]pyridine-2-carboxamide], the melting point was 181 to 182 °C. The half-maximal effective concentration (EC50) in series [1] (Homo sapiens) is at most 5 nM. For the same compound, the “difference between the dose exhibiting a statistically significant decrease in the intracerebral amount of Aβ and the dose exhibiting an immunosuppressing effect” value in series [2] (listed as (1-5)) is “sufficient differences were recognized”.
`Cc1cc(C(=O)NCO)ncc1C(c1c(F)ccc(F)c1F)S(=O)(=O)c1ccc(Cl)cc1` (stereo not shown) [Example 120, 5-[[(4-Chlorophenyl)sulfonyl](2,3,6-trifluorophenyl)methyl]-N-(hydroxymethyl)-4-methylpyridine-2-carboxamide] had a melting point of 177 to 178 °C. Besides, in series [1] (Homo sapiens), the half-maximal effective concentration (EC50) was at most 5 nM.
For `Cc1cc(C(N)=O)ncc1C(c1c(F)ccc(F)c1F)S(=O)(=O)c1ccc(OC(F)(F)F)cc1` (stereo not shown) [Example 123, 4-Methyl-5-[[[4-(trifluoromethoxy)phenyl]sulfonyl](2,3,6-trifluorophenyl)methyl]pyridine-2-carboxamide], the melting point fell in the range of 219 to 220 °C. Moreover, in series [1] (Homo sapiens), the EC50 was at most 5 nM.
In turn, `Cc1cc(C(=O)NCO)ncc1C(c1c(F)ccc(F)c1F)S(=O)(=O)c1ccc(OC(F)(F)F)cc1` (stereo not shown) [Example 124, N-(hydroxymethyl)-4-methyl-5-[[[4-(trifluoromethoxy)phenyl]sulfonyl](2,3,6-trifluorophenyl)methyl]pyridine-2-carboxamide] showed a melting point of 140 to 141 °C. In series [1] (Homo sapiens), the 50% effective concentration (EC50) was in the range of 5 to 50 nM.
As for `CC(C)[C@H](O)C(=O)N[C@@H](C)C(=O)N[C@@H]1C(=O)N(C)CCc2ccccc21` [LY, (N)—((S)-2-hydroxy-3-methyl-butyryl)-1-(L-alaninyl)-(S)-1-amino-3-methyl-4,5,6,7-tetrahydro-2H-3-benzoazepin-2-one, reference compound], the concentration for a half-maximal effect (EC50) in series [1] was 5 to 50 nM. In series [2], the “difference between the dose exhibiting a statistically significant decrease in the intracerebral amount of Aβ and the dose exhibiting an immunosuppressing effect” value is given as “no sufficient difference was recognized”.
